EC50 data for one compound are collected here from US8618154B2, “LXR modulators” (Bristol-Myers Squibb Company, priority 2009, dated 2013).

The term EC50 denotes the concentration giving half of the maximal effect.

In the experiment the test system is ABCA1 gene expression. Kind of experiment: Human whole blood assay (hWBA), ABCA1 mRNA induction. It counts as cell-based. The conditions noted are these: Homo sapiens; full LXRα and LXRβ pan agonist used as reference; read-out: EC50 of reference compound. The procedure: Human whole blood was collected in EDTA containing tubes and 0.5 mL aliquots were immediately mixed in a 96 well block with the appropriate serial dilution of test compound, in 0.5% DMSO. Compounds were incubated with blood at 37° C. with constant rocking for 4 hours. After incubation, cells were lysed in ABI Nucleic Acid Purification Lysis Solution (Applied Biosystems catalog #4305895) and frozen at −80° C. Following cell lysis, total RNA was purified using an ABI 6100 RNA prep station according to the protocol provided by the manufacturer. cDNAs were synthesized, and mRNAs were quantitated using SYBR-Green Quantitative PCR (Q-PCR) on an ABI Prism 7900HT Sequence Detection System and reagents from Quanta Bioscience Inc (Quanta Bioscience catalog #95047 and 95055).
The quantity of each mRNA was determined by the ΔΔCT method (Michael W. Pfaffl. A new mathematical model for relative quantification in real-time RT-PCR. Nucleic Acids Research, 2001, Vol. 29, No. 9 e45) and normalized to the quantity of two control mRNAs, i.e. ribosomal protein L-30 (L-30) and beta-2-microglobulin (B2M). The induction of ABCA1 and ABCG1 by test compound was graphed as a percent of the reference compound, 2-(4-(5-(5-cyano-1-(2,4-difluorobenzyl)-6-oxo-4-(trifluoromethyl)-1,6-dihydropyridin-2-yl)thiophen-2-yl)-3-methylphenyl)acetic acid, and potency (EC50) and activity (% MAX) were calculated by fitting a sigmoidal response curve as a function of log transformed compound concentration using XLFit software according to the equation y=A+((B−A)/(1+((C/x)^D))).

`Cc1cc(CC(=O)O)ccc1-c1ccc(-c2cc(C(F)(F)F)c(C#N)c(=O)n2Cc2ccc(F)cc2F)s1` [2-(4-(5-(5-cyano-1-(2,4-difluorobenzyl)-6-oxo-4-(trifluoromethyl)-1,6-dihydropyridin-2-yl)thiophen-2-yl)-3-methylphenyl)acetic acid, reference compound]: the EC50 fell in the range of 1 to 2 µM.
